Earlier results as cited in PMC11902296, “cAmbly: A non-toxic cell-penetrating peptide derived from Amblyomin-X with targeted delivery to mitochondrial and cytoplasmic proteins” (PLOS One, 2025).
No end group written: not given here.

How the values were obtained:
tumor cells [1] = conditions: isolated domain of Amblyomin-X
From the text: One promising candidate has emerged from Amblyomin-X, a Kunitz-type protease inhibitor derived from the salivary glands of the tick Amblyomma sculptum. […] Structurally, Amblyomin-X consists of two distinct regions: a non-permeant Kunitz-type domain located at the N-terminus, which mediates the protein’s cytotoxic activity, and a disordered C-terminal tail.

tumor cells [2] = conditions: isolated domain of Amblyomin-X; remark: listed apart in the source
From the text: Amblyomin-X is a promising antitumoral protein that requires cellular internalization to exert its activity.

Question: With “EEQTHFHFESPKLISFKVQDYWILNDIMKKNLTGISLKSEEEDADSGEID [cAmbly]” as the sequence, how does the cytotoxic activity (tumor cells [1]) read?
Answer: lacks cytotoxic activity

Question: And the “ability to enter cells” value (tumor cells [2])?
Answer: can penetrate cells
